# Earlier results, collected in publication PMC11915028 (ACS Pharmacology & Translational Science, 2025).
# Target: PSMA expression in PCa lesions (Homo sapiens, UniProt Q04609)
# Description: High tumor-to-background ratios are required for the detection of small cancer/metastatic lesions. The required ratio is ∼10 for the detection of lesions with about 1 cm diameter, but for the detection of smaller lesions (0.3 cm), the required ratio should be almost 90.[30]
# PSMA expression in PCa lesions, sequence (Q04609 whole entry): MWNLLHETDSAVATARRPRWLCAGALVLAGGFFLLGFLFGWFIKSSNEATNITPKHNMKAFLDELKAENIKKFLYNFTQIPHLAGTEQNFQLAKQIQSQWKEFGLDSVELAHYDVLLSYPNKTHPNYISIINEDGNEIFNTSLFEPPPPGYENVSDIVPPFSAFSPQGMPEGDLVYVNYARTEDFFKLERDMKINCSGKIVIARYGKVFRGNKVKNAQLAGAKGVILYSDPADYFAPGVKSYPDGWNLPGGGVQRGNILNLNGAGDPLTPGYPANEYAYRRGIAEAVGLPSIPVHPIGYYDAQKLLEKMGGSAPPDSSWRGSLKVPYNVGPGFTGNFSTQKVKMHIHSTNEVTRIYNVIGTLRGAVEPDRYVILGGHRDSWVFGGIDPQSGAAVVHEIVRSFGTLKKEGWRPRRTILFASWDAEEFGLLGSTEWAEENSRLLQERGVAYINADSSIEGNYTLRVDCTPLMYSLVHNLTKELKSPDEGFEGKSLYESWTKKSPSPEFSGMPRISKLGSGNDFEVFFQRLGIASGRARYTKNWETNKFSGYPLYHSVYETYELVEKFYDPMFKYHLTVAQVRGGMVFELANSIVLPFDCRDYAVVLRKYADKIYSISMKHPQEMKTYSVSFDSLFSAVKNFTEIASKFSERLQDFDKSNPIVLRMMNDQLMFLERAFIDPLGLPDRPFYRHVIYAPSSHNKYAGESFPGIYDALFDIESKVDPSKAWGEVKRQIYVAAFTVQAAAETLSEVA
smiles,measurement,setting,value
O=C([O-])CN(CCN(CC(=O)[O-])Cc1cc(CCC(=O)NCCCCCC(=O)NCCCC[C@H](NC(=O)N[C@@H](CCC(=O)O)C(=O)O)C(=O)O)ccc1[O-])Cc1cc(CCC(=O)O)ccc1[O-].[68Ga+3].[OH3+] [[^68Ga]Ga-PSMA-11],"SUVmax, local recurrences of PCa","PET, three hours post-administration",3–39
same,"SUVmax, normal prostate gland tissue","human, in vivo",2−4
